The target in this assay is recombinant Mcl-1 (residues 172-327) (Homo sapiens (Human), UniProt Q07820). Kind of assay: Fluorescence polarization anisotropy competition assay (FITC-Bak or FITC-Bim BH3 peptide) with Mcl-1. The format is binding. The conditions noted are these: Table 2, FITC-Bak or FITC-Bim peptide competition, Ki converted from IC50, read-out: Ki for Inhibition of Mcl-1.

Like-named read-outs stand apart in the source and are kept apart here. Bounds are passed on as bounds.

Sequence of recombinant Mcl-1 (residues 172-327) (Q07820 172-327): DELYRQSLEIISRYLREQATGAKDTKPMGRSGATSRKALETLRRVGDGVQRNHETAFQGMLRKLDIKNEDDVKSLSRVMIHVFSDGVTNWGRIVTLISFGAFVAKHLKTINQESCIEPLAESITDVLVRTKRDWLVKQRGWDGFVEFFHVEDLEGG

For `Cc1cc(OCCCc2c(C(=O)NCc3cccc(C(=O)NS(=O)(=O)c4ccccc4C#N)c3)[nH]c3c(-c4c(C)n[nH]c4C)cccc23)cc(C)c1Cl` [I-26, 3-(3-(4-chloro-3,5-dimethylphenoxy)propyl)-N-(3-(((2-cyanophenyl)sulfonyl)carbamoyl)benzyl)-7-(3,5-dimethyl-1H-pyrazol-4-yl)-1H-indole-2-carboxamide], the inhibition constant Ki (Ki bins given in nM) is less than 50 nM.
Still for that read-out and setting: for `Cc1cc(OCCCc2c(C(=O)NCc3cccc(C(=O)NS(=O)(=O)c4ccc([N+](=O)[O-])cc4)c3)[nH]c3c(-c4c(C)n[nH]c4C)cccc23)cc(C)c1Cl` [I-27, 3-(3-(4-chloro-3,5-dimethylphenoxy)propyl)-7-(3,5-dimethyl-1H-pyrazol-4-yl)-N-(3-(((4-nitrophenyl)sulfonyl)carbamoyl)benzyl)-1H-indole-2-carboxamide] the value was less than 50 nM; for `Cc1cc(OCCCc2c(C(=O)NCc3cccc(C(=O)NS(=O)(=O)c4cccc(C#N)c4)c3)[nH]c3c(-c4c(C)nn(C)c4C)cccc23)cc(C)c1Cl` [I-30, 3-(3-(4-chloro-3,5-dimethylphenoxy)propyl)-N-(3-(((3-cyanophenyl)sulfonyl)carbamoyl)benzyl)-7-(1,3,5-trimethyl-1H-pyrazol-4-yl)-1H-indole-2-carboxamide], less than 50 nM.
Same read-out and setting: next, `Cc1cc(OCCCc2c(C(=O)NCc3cccc(C(=O)O)c3)n(C)c3c(-c4c(C)nn(C)c4C)cccc23)cc(C)c1Cl` [I-33, 3-((3-(3-(4-chloro-3,5-dimethylphenoxy)propyl)-1-methyl-7-(1,3,5-trimethyl-1H-pyrazol-4-yl)-1H-indole-2-carboxamido)methyl)benzoic acid]: 51 to 100 nM.
Take `Cc1cc(OCCCc2c(C(=O)NCc3cccc(C(=O)O)c3)[nH]c3c(-c4c(CN5CCCC5)nn(C)c4C)cccc23)cc(C)c1Cl` [I-34, 3-((3-(3-(4-chloro-3,5-dimethylphenoxy)propyl)-7-(1,5-dimethyl-3-(pyrrolidin-1-ylmethyl)-1H-pyrazol-4-yl)-1H-indole-2-carboxamido)methyl)benzoic acid]: under “Ki bins given in nM”, the Ki is less than 50 nM.
Same read-out and setting: for `Cc1cc(OCCCc2c(C(=O)NCc3cccc(C(=O)NS(=O)(=O)c4ccccc4C#N)c3)[nH]c3c(-c4c(CN5CCCC5)nn(C)c4C)cccc23)cc(C)c1Cl` [I-35, 3-(3-(4-chloro-3,5-dimethylphenoxy)propyl)-N-(3-(((2-cyanophenyl)sulfonyl)carbamoyl)benzyl)-7-(1,5-dimethyl-3-(pyrrolidin-1-ylmethyl)-1H-pyrazol-4-yl)-1H-indole-2-carboxamide] the value was less than 50 nM; for `Cc1cc(OCCCc2c(C(=O)Nc3cccc(C(=O)O)c3)[nH]c3c(-c4cccnc4C)cccc23)cc(C)c1Cl` [I-36, 3-(3-(3-(4-chloro-3,5-dimethylphenoxy)propyl)-7-(2-methylpyridin-3-yl)-1H-indole-2-carboxamido)benzoic acid], less than 50 nM; for `Cc1cc(OCCCc2c(C(=O)Nc3ccc(C(=O)O)cc3)[nH]c3c(-c4cccnc4C)cccc23)cc(C)c1Cl` [I-37, 4-(3-(3-(4-chloro-3,5-dimethylphenoxy)propyl)-7-(2-methylpyridin-3-yl)-1H-indole-2-carboxamido)benzoic acid], less than 50 nM.
On to `Cc1cc(OCCCc2c(C(=O)NCc3ccccc3)[nH]c3ccccc23)cc(C)c1Cl` [I-41, N-benzyl-3-(3-(4-chloro-3,5-dimethylphenoxy)propyl)-1H-indole-2-carboxamide], for which the Ki (Ki bins given in μM) is 10000 to 50000 nM.
For `Cc1cc(OCCCc2c(C(=O)NCCc3ccccc3)[nH]c3ccccc23)cc(C)c1Cl` [I-42, 3-(3-(4-chloro-3,5-dimethylphenoxy)propyl)-N-phenethyl-1H-indole-2-carboxamide], the Ki (Ki bins given in μM) lay in the range of 10000 to 50000 nM.
`Cc1cc(OCCCc2c(C(=O)NCCc3c(C)n(C)c4ccccc34)[nH]c3ccccc23)cc(C)c1Cl` [I-44, 3-(3-(4-chloro-3,5-dimethylphenoxy)propyl)-N-(2-(1,2-dimethyl-1H-indol-3-yl)ethyl)-1H-indole-2-carboxamide]: the Ki (Ki bins given in μM) lay in the range of 1000 to 9990 nM.
Still for that read-out and setting: for `Cc1cc(OCCCc2c(C(=O)NCc3ccc(Oc4ccccc4)cc3)[nH]c3ccccc23)cc(C)c1Cl` [I-45, 3-(3-(4-chloro-3,5-dimethylphenoxy)propyl)-N-(4-phenoxybenzyl)-1H-indole-2-carboxamide] the value was 10000 to 50000 nM; for `Cc1cc(OCCCc2c(C(=O)N3CCN(c4ccccc4)CC3)[nH]c3ccccc23)cc(C)c1Cl` [I-46, (3-(3-(4-chloro-3,5-dimethylphenoxy)propyl)-1H-indol-2-yl)(4-phenylpiperazin-1-yl)methanone], 1000 to 9990 nM; for `Cc1cc(OCCCc2c(C(=O)N3CCC(N4CCOCC4)CC3)[nH]c3ccccc23)cc(C)c1Cl` [I-47, (3-(3-(4-chloro-3,5-dimethylphenoxy)propyl)-1H-indol-2-yl)(4-morpholinopiperidin-1-yl)methanone], 10000 to 50000 nM.
On the same count and under the same terms, next, `Cc1cc(OCCCc2c(C(=O)N3CCC(NC(=O)OC(C)(C)C)CC3)[nH]c3ccccc23)cc(C)c1Cl` [I-48, tert-butyl (1-(3-(3-(4-chloro-3,5-dimethylphenoxy)propyl)-1H-indole-2-carbonyl)piperidin-4-yl)carbamate]: 1000 to 9990 nM.
As to `Cc1cc(OCCCc2c(C(=O)N(Cc3ccc(C(F)(F)F)cc3)c3ccc(S(N)(=O)=O)cn3)[nH]c3ccccc23)cc(C)c1Cl` [I-49, 3-(3-(4-chloro-3,5-dimethylphenoxy)propyl)-N-(5-sulfamoylpyridin-2-yl)-N-(4-(trifluoromethyl)benzyl)-1H-indole-2-carboxamide], where the note is “Ki bins given in nM”, the Ki is 101 to 299 nM.
With `CCOC(=O)c1ccc(N2CCN(C(=O)c3[nH]c4cc(Cl)ccc4c3CCCOc3cc(C)c(Cl)c(C)c3)CC2)cc1` [I-50, ethyl 4-(4-(6-chloro-3-(3-(4-chloro-3,5-dimethylphenoxy)propyl)-1H-indole-2-carbonyl)piperazin-1-yl)benzoate], the Ki (Ki bins given in μM) is 10000 to 50000 nM.
With `Cc1cc(OCCCc2c(C(=O)N3CCN(c4ccc(C(=O)O)cc4)CC3)[nH]c3cc(Cl)ccc23)cc(C)c1Cl` [I-51, 4-(4-(6-chloro-3-(3-(4-chloro-3,5-dimethylphenoxy)propyl)-1H-indole-2-carbonyl)piperazin-1-yl)benzoic acid], the Ki (Ki bins given in μM) was in the range of 1000 to 9990 nM.
Consider `COC(=O)c1cccc(N2CCN(C(=O)c3[nH]c4cc(Cl)ccc4c3CCCOc3cc(C)c(Cl)c(C)c3)CC2)c1` [I-52, methyl 3-(4-(6-chloro-3-(3-(4-chloro-3,5-dimethylphenoxy)propyl)-1H-indole-2-carbonyl)piperazin-1-yl)benzoate], for which the inhibition constant Ki (Ki bins given in nM) is 501 to 999 nM.
Same read-out and setting: next, `Cc1cc(OCCCc2c(C(=O)NCCS(=O)(=O)NC(=O)Cc3ccc(Br)cc3)[nH]c3ccccc23)cc(C)c1Cl` [I-53, N-(2-(N-(2-(4-bromophenyl)acetyl)sulfamoyl)ethyl)-3-(3-(4-chloro-3,5-dimethylphenoxy)propyl)-1H-indole-2-carboxamide]: 301 to 500 nM.
On the same count and under the same terms, for `Cc1cc(OCCCc2c(C(=O)NCCS(=O)(=O)NC(=O)CC34CC5CC(CC(C5)C3)C4)[nH]c3ccccc23)cc(C)c1Cl` [I-54, N-(2-(N-(2-((3r,5r,7r)-adamantan-1-yl)acetyl)sulfamoyl)ethyl)-3-(3-(4-chloro-3,5-dimethylphenoxy)propyl)-1H-indole-2-carboxamide] the value was 501 to 999 nM.

The values above are taken from patent US10533010B2, “Substituted indole Mcl-1 inhibitors” (Vanderbilt University, priority 2014, dated 2020).
